According to patent publication US8367659B2, “Oxazinyl isoflavonoid compounds, medicaments and use” (Marshall Edwards, Inc., priority 2007, dated 2013):

Columns and labels:
[1] = system: neonatal foreskin fibroblasts (NFF); test: Toxicity to normal cells, neonatal foreskin fibroblasts; assay type: cell-based; conditions: Fibroblast; normal, non-transformed cells; read-out: IC50 μM, NFF Fibroblast
Experimental: (§1) IC50 values were determined for each cell line. Cells were seeded in 96-well plates at an appropriate cell density as determined from growth kinetics analysis and cultured for 5 days in the absence and presence of the test compounds. Cell proliferation was assessed after the addition of 20 μl of 3-4,5 dimethylthiazol-2,5-diphenyl tetrazolium bromide (MTT, 2.5 mg/ml in PBS, Sigma) for 3-4 hrs at 37° C. according to manufacturer's instructions. IC50 values were calculated from semi-log plots of % of control proliferation on the y-axis against log dose on the x-axis.
(§2) The neonatal foreskin fibroblasts (NFF) were a gift from Dr. Peter Parsons (Queensland Institute of Medical Research). Rabbit kidney (RK-13) cells were obtained from Miller Whalley (Macquarie University). Both cell lines were cultured in RPMI supplemented with 10% FCS(CSL, Australia), penicillin (100 U/ml), streptomycin ([…]), L-glutamine (2 mM) and sodium bicarbonate (1.2 g/L), and cultured at 37° C. in a humidified atmosphere of 5% CO2. IC50 values were determined as described above.

MM200 = test: Anti-cancer activity, MM200 melanoma cells (MTT); assay type: cell-based; conditions: for IC50: 120 h, 5 days, MTT
[2] = system: Rabbit kidney (RK-13) cells; test: Toxicity to normal cells, rabbit kidney (RK-13) cells; assay type: cell-based; conditions: Oryctolagus cuniculus, normal, non-transformed cells, read-out: IC50 μM, RK Rabbit Kidney
Experimental: as §1, §2

[3] = Free radical scavenging with DPPH; conditions: DPPH, 20 minutes, absorbance 517 nm; Table 4; read-out: Free radical scavenging ability EC50
Experimental: The antioxidant (free radical trapping) activity of test compounds was assessed using the stable free radical compound 2,2-diphenyl-1-picrylhydrazyl (DPPH). A stock solution of DPPH was prepared at a concentration of […] in ethanol and mixed for 10 minutes prior to use. Test compounds at a concentration of 100 μM were reacted with DPPH for, 20 minutes, alter which time the absorbance at 517 nm was determined. Initial screening of was done at 100 μM. The change in absorbance at 517 nm was compared to a reagent blank (DPPH with ethanol alone). […] The IC50 values were estimated as the concentration of test compound that caused a 0.6 change in absorbance (with 1.2 absorbance units representing total scavenging of the DPPH radical).
The antioxidant (free radical trapping) activity of test compounds was assessed using the stable free radical compound 2,2-diphenyl-1-picrylhydrazyl (DPPH). A stock solution of DPPH was prepared […] in ethanol and mixed for 10 minutes prior to use. Initial screening of test compound at a concentration of 100 μM was reacted with DPPH for 20 minutes, after which time the absorbance at 517 nm was determined. The change in absorbance was compared to a reagent blank (DPPH with ethanol alone). […] The IC50 value was estimated as the concentration of test compound that causes a 0.6 change in absorbance (with 1.2 absorbance units representing total scavenging of the DPPH radical).

[4] = system: NO synthesis in RAW 264.7 murine macrophages; test: LPS-induced NO synthesis in RAW 264.7 murine macrophages (Griess); assay type: cell-based, mouse; conditions: 10 μM; relative to vehicle alone; FIG. 6
Experimental: The mouse macrophage cell line RAW 264.7 was cultured in DMEM supplemented with foetal calf serum (FCS), […] glutamine and 50 U/ml penicillin/streptomycin. Cells were treated with either test compound (in 0.025% DMSO) or vehicle alone, and added one hour before 50 ng/ml LPS. After incubation for 24 h, culture media was collected for PGE2 or TXB2 measurement by ELISA (Cayman Chemical), and TNFα measurement using an ELISA (Becton Dickinson). Nitrite concentration is a quantitative indicator of NO production and was determined by the Griess Reaction. Briefly, 100 μL of Griess reagent was added to 50 μL of each supernatant in duplicate. The absorbance at 550 nm was measured (Molecular Devices, SpectraMax 250 microplate spectrophotometer, CA, USA), and nitrite concentrations were determined against a standard curve of sodium nitrite. The percentage nitrite inhibition was calculated as: [100−(nitrite concentration of sample/nitrite of vehicle control LPS cells)×100]. Results Test compounds were examined a concentration of 10 μM. […] Consequently, to assess the effect of test compounds on various analytes, cell viability was taken into consideration with the use of the formula: Actual effect of test compound=measured effect−(effect on cell viability×measured effect)

CP70 = test: Anti-cancer activity, CP70 ovarian cancer cells (MTT); assay type: cell-based; conditions: 120 h, 5 days
HPAC = test: Anti-cancer activity, HPAC pancreatic cancer cells (MTT); assay type: cell-based; conditions: Homo sapiens, 120 h, 5 days
[5] = molecular target: T1, GAL4-PPARγ fusion protein (Homo sapiens, UniProt P37231); test: PPARγ activity in transfected HEK293 cells (beta-lactamase reporter); assay type: cell-based; conditions: FIG. 13: 1 μM
T1 construct: host or cells: HEK293 (human embryonic kidney), stably transfected
Experimental: Human HEK293 cells, stably transfected with the PPARγ ligand binding domain fused with the DNA binding domain of the GAL4 protein (GAL4-PPARγ fusion protein), produce beta-lactamase when incubated with PPARγ ligands. Transfected human kidney embryonic cells (Invitrogen Inc., Carlsbad, Calif.) were seeded onto matrigel in 96-well plates and allowed to attach overnight. The following day, vehicle alone (DMSO) or test compound at 1, 5 and 10 μM was added at varying concentrations to cells and incubated for 16-18 hours. Cells were then loaded with a FRET-based fluorescent substrate to assess beta-lactamase activity. Cells were protected from light, and incubated at room temperature for 2 h. Plates were read on a fluorescence plate reader with an excitation wavelength of 409 nm and emission wavelengths of 460 nm and 530 nm. Results were expressed as a ratio of these two wavelengths after the background (cell-free control wells) had been subtracted. PPARγ activity was thus determined by measuring beta-lactamase activity as assessed by a fluorescent product to substrate ratio.

[6] = system: human umbilical vein smooth muscle cells (HUVSMC); test: Proliferation of human umbilical vein smooth muscle cells (MTT); assay type: cell-based; conditions: 10 μM; 10% FCS, 5 days; FIG. 8
Experimental: The effect of test compounds on human umbilical vein smooth muscle cells (HUVSMC) was examined. Cells were seeded into 96 well plates at a low seeding rate of 1.6×10^3 cells per well, and allowed to attach for 24 hours. The cells were then washed twice with medium without FCS and incubated in medium without FCS for 20 hours to serum starve them. Analogue was prepared in medium without FCS at 20 μM and added to the plates and incubated for one hour. Final analogue concentration was therefore 10 μM. The cells were then stimulated by adding medium +20% FCS, to give a final FCS concentration of 10%. The cells were incubated until the control cells i.e. those with FCS and no compound, were just confluent (5 days). An MTT assay was performed, and difference in absorbance in analogue treated cells from the control was calculated using the formula: test/control*100−100. Results
The effect of test compounds on human umbilical vein smooth muscle cells (HUVSMC), was examined. Cells, tissue explants from a neonate (HRI—passage 2), were seeded into 96 well plates at 1×10^3 cells per well, and allowed to attach for 24 hours. They were then washed twice and incubated in medium without foetal calf serum (FCS) for 24-48 hours to serum-starve them. Test compounds were prepared in medium without FCS and added to the plates and incubated for one hour. Medium with FCS was added to give a final concentration of 10% and the plates incubated for 4-5 days until the controls were just confluent.

[7] = system: TXB2 synthesis in RAW 264.7 murine macrophages; test: LPS-induced TXB2 synthesis in RAW 264.7 murine macrophages; assay type: cell-based, mouse; conditions: 10 μM; relative to vehicle alone; FIG. 4
Experimental: (§3) The mouse macrophage cell line RAW 264.7 was cultured in DMEM supplemented with foetal calf serum (FCS), […] glutamine and 50 U/ml penicillin/streptomycin. Cells were treated with either test compound (in 0.025% DMSO) or vehicle alone, and added one hour before 50 ng/ml LPS. After incubation for 24 h, culture media was collected for PGE2 or TXB2 measurement by ELISA (Cayman Chemical), and TNFα measurement using an ELISA (Becton Dickinson). Test compounds were examined a concentration of 10 μM. […] Consequently, to assess the effect of test compounds on various analytes, cell viability was taken into consideration with the use of the formula: Actual effect of test compound=measured effect−(effect on cell viability×measured effect)

cancer cell lines = test: Anti-cancer activity, cancer cell lines tested as a group (MTT); assay type: cell-based; conditions: CP70, HPAC and MM200
[8] = system: PGE2 synthesis in RAW 264.7 murine macrophages; test: LPS-induced PGE2 synthesis in RAW 264.7 murine macrophages; assay type: cell-based, mouse; conditions: 10 μM; relative to vehicle alone; FIG. 3
Experimental: as §3

T1 sequence (P37231 238-503 limits assumed): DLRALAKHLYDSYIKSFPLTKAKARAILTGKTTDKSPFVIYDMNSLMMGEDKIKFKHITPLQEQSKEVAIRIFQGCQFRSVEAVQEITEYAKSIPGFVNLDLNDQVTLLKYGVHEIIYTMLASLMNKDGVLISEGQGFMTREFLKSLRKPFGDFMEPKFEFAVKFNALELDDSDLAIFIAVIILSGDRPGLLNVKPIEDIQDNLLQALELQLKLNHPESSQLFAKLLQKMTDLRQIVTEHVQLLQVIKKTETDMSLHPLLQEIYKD
T1 sequence (P04386 1-147 partner limits assumed): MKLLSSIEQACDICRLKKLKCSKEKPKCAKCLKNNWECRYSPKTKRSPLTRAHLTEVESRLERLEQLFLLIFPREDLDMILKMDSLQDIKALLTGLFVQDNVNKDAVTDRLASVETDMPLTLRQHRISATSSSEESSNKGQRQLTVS

Structure (SMILES)	IC50 [1]	toxicity to the MM200 melanoma cell line (MM200)	IC50 (MM200)	IC50 [2]	EC50 [3]	mean change of LPS-induced NO synthesis [4]	IC50 (CP70)	IC50 (HPAC)	PPARγ activation, increase in beta-lactamase activity over media only control [5]	effect on proliferation of HUVSMCs induced by FCS [6]	mean change of LPS-induced TXB2 synthesis [7]	activity against CP70, HPAC and MM200 cell lines (cancer cell lines)	mean change of LPS-induced PGE2 synthesis [8]
CCCN1COc2cc3c(cc2C1)C=C(c1ccc(O)cc1)CO3 [Compound 3, 4-(3-Propyl-2,3,4,8-tetrahydrochromeno[6,7-e][1,3]oxazin-7-yl)phenol]	56.2 ± 12.6 µM	selectively toxic	8.9 ± 0.1 µM	4.8 µM	20 µM	greatest inhibition	30.7 ± 22 µM	32.2 µM					
Oc1ccc(C2=Cc3cc4c(cc3OC2)OCN(c2ccccc2)C4)cc1 [Compound 7, 4-(3-Phenyl-2,3,4,8-tetrahydrochromeno[6,7-e][1,3]oxazin-7-yl)phenol]	48.8 ± 12.2 µM		36.3 ± 6 µM	56.6 µM	22.5 µM	greatest inhibition	9.98 ± 0.5 µM	48.8 µM	PPARγ agonist activity	significantly inhibited the proliferation			
COc1ccc(C2=C(c3ccc(O)cc3)COc3cc4c(cc32)CN(Cc2ccc(Cl)cc2)CO4)cc1 [Compound 24, 4-(3-(4-Chlorobenzyl)-6-(4-methoxyphenyl)-2,3,4,8-tetrahydrochromeno[6,7-e][1,3]oxazin-7-yl)-phenol]			14.6 µM		24 µM	greatest inhibition	8.6 µM	6.83 µM			greatest inhibition	active	greatest inhibition
